Measurements: article PMC3100199 (ACS medicinal chemistry letters, 2011)

Legend:
PKD1 [1] = molecular target: T1, PKD1 (Homo sapiens, UniProt Q15139); details: PKD; cited from earlier work
T1 sequence (Q15139 1-912): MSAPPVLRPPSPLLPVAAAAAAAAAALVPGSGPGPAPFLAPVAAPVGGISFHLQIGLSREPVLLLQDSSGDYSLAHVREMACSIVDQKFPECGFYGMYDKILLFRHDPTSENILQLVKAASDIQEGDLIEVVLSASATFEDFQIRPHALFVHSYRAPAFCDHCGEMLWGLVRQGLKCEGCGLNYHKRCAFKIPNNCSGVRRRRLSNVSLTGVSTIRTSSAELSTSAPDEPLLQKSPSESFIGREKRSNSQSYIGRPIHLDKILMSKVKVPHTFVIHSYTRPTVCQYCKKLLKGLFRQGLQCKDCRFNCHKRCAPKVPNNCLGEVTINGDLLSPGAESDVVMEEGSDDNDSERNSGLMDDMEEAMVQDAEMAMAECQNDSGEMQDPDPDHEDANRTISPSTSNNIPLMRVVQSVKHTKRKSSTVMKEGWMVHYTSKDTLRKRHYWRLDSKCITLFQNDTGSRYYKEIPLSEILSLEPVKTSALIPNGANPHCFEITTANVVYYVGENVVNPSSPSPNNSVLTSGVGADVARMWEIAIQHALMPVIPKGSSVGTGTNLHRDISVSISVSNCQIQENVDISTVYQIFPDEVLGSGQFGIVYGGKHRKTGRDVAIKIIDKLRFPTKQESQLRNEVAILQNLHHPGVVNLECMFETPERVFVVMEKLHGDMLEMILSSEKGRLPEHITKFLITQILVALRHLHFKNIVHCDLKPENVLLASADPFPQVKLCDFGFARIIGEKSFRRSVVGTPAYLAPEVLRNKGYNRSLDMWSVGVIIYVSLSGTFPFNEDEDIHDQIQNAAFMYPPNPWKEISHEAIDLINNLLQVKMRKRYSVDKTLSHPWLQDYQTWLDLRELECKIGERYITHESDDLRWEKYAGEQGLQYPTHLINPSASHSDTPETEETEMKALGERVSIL

PKCα = PKCα (Homo sapiens, UniProt P17252); assay: Selectivity assay against PKCα; assay type: biochemical; details: selectivity counterscreen
PKCβI = PKCβI (Homo sapiens, UniProt P05771); assay: Selectivity assay against PKCβI; assay type: biochemical; details: selectivity counterscreen
PKCβI, sequence (P05771 whole entry): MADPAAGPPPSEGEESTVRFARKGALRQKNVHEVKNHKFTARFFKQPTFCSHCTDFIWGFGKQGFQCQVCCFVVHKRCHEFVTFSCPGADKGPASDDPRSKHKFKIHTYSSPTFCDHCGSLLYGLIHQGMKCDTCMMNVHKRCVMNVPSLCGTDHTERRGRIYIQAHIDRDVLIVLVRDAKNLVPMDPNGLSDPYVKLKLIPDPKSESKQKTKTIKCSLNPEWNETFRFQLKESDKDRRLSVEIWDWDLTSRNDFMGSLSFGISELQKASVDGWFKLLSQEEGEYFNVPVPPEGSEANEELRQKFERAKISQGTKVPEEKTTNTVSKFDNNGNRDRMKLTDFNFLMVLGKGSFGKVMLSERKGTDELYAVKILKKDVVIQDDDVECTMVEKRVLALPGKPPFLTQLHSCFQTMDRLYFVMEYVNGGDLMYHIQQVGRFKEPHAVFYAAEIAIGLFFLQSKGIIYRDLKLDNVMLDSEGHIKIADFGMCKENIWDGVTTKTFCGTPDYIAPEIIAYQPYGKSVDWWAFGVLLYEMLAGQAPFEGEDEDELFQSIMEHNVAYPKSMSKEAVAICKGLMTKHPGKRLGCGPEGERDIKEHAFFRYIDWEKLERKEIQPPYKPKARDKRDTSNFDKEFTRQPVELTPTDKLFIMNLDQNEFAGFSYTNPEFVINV

PKCδ = PKCδ (Homo sapiens, UniProt Q05655); assay: Selectivity assay against PKCδ; assay type: biochemical; details: selectivity counterscreen
PKCδ, sequence (Q05655 whole entry): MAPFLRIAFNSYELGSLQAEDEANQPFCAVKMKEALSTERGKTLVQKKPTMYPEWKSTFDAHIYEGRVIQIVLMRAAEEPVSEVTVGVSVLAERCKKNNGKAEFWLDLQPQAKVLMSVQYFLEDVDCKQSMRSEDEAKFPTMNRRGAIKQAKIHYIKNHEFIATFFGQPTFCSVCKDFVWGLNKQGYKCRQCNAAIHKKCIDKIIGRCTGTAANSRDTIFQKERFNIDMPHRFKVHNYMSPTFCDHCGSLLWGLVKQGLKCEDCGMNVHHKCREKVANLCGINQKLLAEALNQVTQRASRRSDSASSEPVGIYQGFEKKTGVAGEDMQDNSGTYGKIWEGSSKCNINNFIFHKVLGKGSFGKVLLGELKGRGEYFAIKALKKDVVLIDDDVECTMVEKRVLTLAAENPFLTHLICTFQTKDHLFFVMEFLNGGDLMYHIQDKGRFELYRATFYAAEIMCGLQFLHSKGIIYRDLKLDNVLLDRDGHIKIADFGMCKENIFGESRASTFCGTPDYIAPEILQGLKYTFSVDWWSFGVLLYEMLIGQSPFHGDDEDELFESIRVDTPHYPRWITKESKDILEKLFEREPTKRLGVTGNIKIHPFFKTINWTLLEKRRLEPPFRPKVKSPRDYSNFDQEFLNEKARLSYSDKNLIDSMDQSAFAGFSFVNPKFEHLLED

PKD1 [2] = molecular target: T1, PKD1; assay: PKD1 radiometric kinase activity assay; assay type: biochemical; details: ratio of in vitro IC50 vs CID755673
[3] = molecular target: T2, PKD1 autophosphorylation at S916 in LNCaP prostate cancer cells (Homo sapiens, UniProt Q15139); assay: Cellular PKD1 autophosphorylation at S916; assay type: cell-based; details: vs CID755673
T2 sequence (Q15139 1-912): T1 sequence (Q15139 1-912)

[4] = in vivo studies; cited from earlier work

Row | SMILES | activity against PKCα (PKCα) | activity against PKCβI (PKCβI) | activity against PKCδ (PKCδ) | mode of inhibition (ATP competition) (PKD1 [1]) | improvement in PKD1 in vitro potency over CID755673 (PKD1 [2]) [fold] | improvement (lowering) of cellular IC50 compared to CID755673 [3] [fold] | plasma half-life [4]
1 | O=C1NCCCc2c1oc1ccc(O)cc21 [CID755673] |  |  |  | not an ATP-competitive inhibitor |  |  | 
2 | O=C1NCCCc2c1[nH]c1ccc(O)cc21 [kb-NB123-57] | did not detect significant activities | did not detect significant activities | did not detect significant activities |  |  |  | 
3 | O=C1NCCSc2c1sc1ccc(O)cc21 [kb-NB142-70] |  |  |  |  | ~7 | 5 | short plasma half-life

The next lines start with results.

Row | activity against PKCα (PKCα) | activity against PKCβI (PKCβI) | activity against PKCδ (PKCδ) | SMILES | mode of inhibition (ATP competition) (PKD1 [1]) | improvement in PKD1 in vitro potency over CID755673 (PKD1 [2]) [fold] | improvement (lowering) of cellular IC50 compared to CID755673 [3] [fold] | plasma half-life [4]
4 | did not detect significant activities | did not detect significant activities | did not detect significant activities | COc1ncc2sc3c(c2n1)SCCNC3=O [kmg-NB4-23] |  |  |  | 
5 | did not detect significant activities | did not detect significant activities | did not detect significant activities | [N-]=[N+]=Nc1ccc2sc3c(c2c1)SCCNC3=O [mcf292-08] |  |  |  | 
